Assay results from PubChem BioAssay (NCI).
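Test compounds were applied to cells in 96-well plates for 48 hours at 5 doses. Abbreviation: GI50, concentration required for 50% inhibition of growth. TGI denotes the concentration required for complete inhibition of growth.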

Assays:
Assay in all cases: NCI tumour cell line growth inhibition, 48 h
[1] = tested on: SK-MEL-5 melanoma
[2] = tested on: SF-539 CNS
[3] = tested on: MDA-MB-231 breast
[4] = tested on: RXF 393 renal
[5] = tested on: TK-10 renal
[6] = tested on: SF-268 CNS
[7] = tested on: MDA-MB-435
[8] = tested on: MALME-3M melanoma
[9] = tested on: T-47D breast
[10] = tested on: UACC-257 melanoma
[11] = tested on: OVCAR-5 ovarian
[12] = tested on: SK-MEL-2 melanoma
[13] = tested on: HCT-116 colon
[14] = tested on: SK-MEL-28 melanoma
[15] = tested on: A498 renal
[16] = tested on: COLO 205 colon
[17] = tested on: HCT-15 colon
[18] = tested on: A549 NSCLC
[19] = tested on: UACC-62 melanoma
[20] = tested on: NCI-H23 lung
[21] = tested on: SR leukemia
[22] = tested on: MCF7 breast
[23] = tested on: OVCAR-4 ovarian
[24] = tested on: OVCAR-3 ovarian
[25] = tested on: MOLT-4 leukemia
[26] = tested on: NCI/ADR-RES ovarian
[27] = tested on: PC-3 prostate
[28] = tested on: SNB-19 CNS
[29] = tested on: RPMI-8226 leukemia
[30] = tested on: K-562 leukemia
[31] = tested on: SF-295 CNS
[32] = tested on: IGROV1 ovarian
[33] = tested on: LOX IMVI melanoma
[34] = tested on: CCRF-CEM leukemia
[35] = tested on: NCI-H226 lung
[36] = tested on: OVCAR-8 ovarian
[37] = tested on: BT-549 breast
[38] = tested on: U251 CNS
[39] = tested on: HL-60(TB) leukemia
[40] = tested on: ACHN renal
[41] = tested on: UO-31 renal
[42] = tested on: SK-OV-3 ovarian
[43] = tested on: KM12 colon
[44] = tested on: SN12C renal
[45] = tested on: M14 melanoma
[46] = tested on: HOP-62 NSCLC
[47] = tested on: NCI-H522 lung
[48] = tested on: SNB-75 CNS
[49] = tested on: EKVX NSCLC
[50] = tested on: 786-0 renal
[51] = tested on: SW-620 colon
[52] = tested on: HCC-2998 colon
[53] = tested on: HT29 colon
[54] = tested on: DU-145 prostate
[55] = tested on: NCI-H460 lung

`CC1(C)N=C(N)N=C(N)N1c1ccc(OCC(=O)Nc2ccc(S(=O)(=O)F)cc2Cl)c(Cl)c1` was tested, and the GI50 [1] was 1.15 µM, the TGI [1] was over 100 µM and the GI50 [2] was 4.77 µM. For the same compound, the TGI [2] was over 100 µM, the GI50 [3] was 54.4 µM and the TGI [3] was over 100 µM. For the same compound, the GI50 [4] was 17.5 µM, the TGI [4] was over 100 µM and the GI50 [5] was 15.4 µM. For the same compound, the TGI [5] was over 100 µM, the GI50 [6] was 3.79 µM and the TGI [6] was over 100 µM. The GI50 [7] was 3.36 µM, the TGI [7] was over 100 µM and the GI50 [8] was 33.8 µM. For the same compound, the TGI [8] was over 100 µM, the GI50 [9] was over 100 µM and the TGI [9] was over 100 µM. The GI50 [10] was over 100 µM, the TGI [10] was over 100 µM and the GI50 [11] was over 100 µM. It also gave a TGI [11] of over 100 µM, a GI50 [12] of over 100 µM and a TGI [12] of over 100 µM. The GI50 [13] was 2.7 µM, the TGI [13] was over 100 µM and the GI50 [14] was 37.6 µM. It also gave a TGI [14] of over 100 µM, a GI50 [15] of 13.3 µM and a TGI [15] of over 100 µM. It also gave a GI50 [16] of 21.1 µM, a TGI [16] of over 100 µM and a GI50 [17] of 4.15 µM. For the same compound, the TGI [17] was over 100 µM, the GI50 [18] was 2.5 µM and the TGI [18] was over 100 µM. The GI50 [19] was 1.16 µM, the TGI [19] was over 100 µM and the GI50 [20] was 4.37 µM. The TGI [20] was over 100 µM, the GI50 [21] was 0.82 µM and the TGI [21] was over 100 µM. It also gave a GI50 [22] of 2.24 µM, a TGI [22] of over 100 µM and a GI50 [23] of over 100 µM. It also gave a TGI [23] of over 100 µM, a GI50 [24] of 5.34 µM and a TGI [24] of over 100 µM. It also gave a GI50 [25] of 6.74 µM, a TGI [25] of over 100 µM and a GI50 [26] of 61.1 µM. It also gave a TGI [26] of over 100 µM, a GI50 [27] of 0.65 µM and a TGI [27] of over 100 µM. The GI50 [28] was over 100 µM, the TGI [28] was over 100 µM and the GI50 [29] was 64.9 µM. It also gave a TGI [29] of over 100 µM, a GI50 [30] of 0.594 µM and a TGI [30] of over 100 µM. It also gave a GI50 [31] of 5.23 µM, a TGI [31] of over 100 µM and a GI50 [32] of 0.42 µM. For the same compound, the TGI [32] was over 100 µM, the GI50 [33] was 1.12 µM and the TGI [33] was over 100 µM. It also gave a GI50 [34] of 0.277 µM, a TGI [34] of over 100 µM and a GI50 [35] of 57.8 µM. For the same compound, the TGI [35] was over 100 µM, the GI50 [36] was 7.79 µM and the TGI [36] was over 100 µM. For the same compound, the GI50 [37] was 58.4 µM, the TGI [37] was over 100 µM and the GI50 [38] was 5.73 µM. For the same compound, the TGI [38] was over 100 µM, the GI50 [39] was 1.46 µM and the TGI [39] was over 100 µM. It also gave a GI50 [40] of 5.57 µM, a TGI [40] of over 100 µM and a GI50 [41] of 44.7 µM. For the same compound, the TGI [41] was over 100 µM, the GI50 [42] was over 100 µM and the TGI [42] was over 100 µM. For the same compound, the GI50 [43] was 4.63 µM, the TGI [43] was over 100 µM and the GI50 [44] was 4.41 µM. It also gave a TGI [44] of over 100 µM, a GI50 [45] of 5.01 µM and a TGI [45] of over 100 µM. The GI50 [46] was 7.81 µM, the TGI [46] was over 100 µM and the GI50 [47] was 7.09 µM. The TGI [47] was over 100 µM, the GI50 [48] was 5.72 µM and the TGI [48] was over 100 µM. The GI50 [49] was over 100 µM, the TGI [49] was over 100 µM and the GI50 [50] was 3.13 µM. For the same compound, the TGI [50] was over 100 µM, the GI50 [51] was 1.08 µM and the TGI [51] was over 100 µM. The GI50 [52] was 23.2 µM, the TGI [52] was over 100 µM and the GI50 [53] was 2.57 µM. The TGI [53] was over 100 µM, the GI50 [54] was 5.69 µM and the TGI [54] was over 100 µM. For the same compound, the GI50 [55] was 0.591 µM and the TGI [55] was over 100 µM.
